These results are taken from PubChem BioAssay (NCI).

Some test systems named below: NCI-H522 lung; SF-295 CNS; U251 CNS; DU-145 prostate; OVCAR-3 ovarian; SNB-19 CNS; MDA-MB-435; EKVX NSCLC; SN12C renal; LOX IMVI melanoma; SK-OV-3 ovarian; COLO 205 colon; HS 578T breast; MOLT-4 leukemia; UO-31 renal; RXF 393 renal.
What all share (assay): NCI anticancer screen, dose series, 48 h

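1) Cells in 96-well plates. 2) Compound, 48 h, 5 concentrations. 3) Linear interpolation between surrounding doses. 4) Unreached endpoint = highest concentration. TGI: concentration producing complete growth inhibition.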

With `CC1(C)OP(=O)(c2ccccc2)C=C1Br` (stereo not drawn), the TGI in the assay with NCI-H522 lung, in the assay on SF-295 CNS, in the assay on U251 CNS, in the assay on DU-145 prostate, in the assay with OVCAR-3 ovarian and with SNB-19 CNS was over 100 µM throughout. The TGI with MDA-MB-435, with EKVX NSCLC, in the assay on SN12C renal, in the assay on LOX IMVI melanoma, in the assay with SK-OV-3 ovarian and in the assay on COLO 205 colon was over 100 µM in each case. This compound also yielded a TGI in the assay on HS 578T breast of over 100 µM.
Take `CCCc1c(O)c2ccccc2[nH]c1=O`: the TGI with NCI-H522 lung, in the assay on SF-295 CNS, in the assay on U251 CNS, in the assay with DU-145 prostate, in the assay on OVCAR-3 ovarian and in the assay on MOLT-4 leukemia was over 100 µM throughout. Besides, the TGI in the assay on SNB-19 CNS, with MDA-MB-435, in the assay with EKVX NSCLC, in the assay on SN12C renal, with UO-31 renal and in the assay with LOX IMVI melanoma was over 100 µM in each case. Further, the TGI in the assay with COLO 205 colon and with HS 578T breast was over 100 µM throughout.
`CC(=O)OC12c3ccccc3C(c3ccccc31)C1C(=O)N(c3ccccc3O)C(=O)C12` (stereo not drawn): the TGI in the assay with RXF 393 renal, in the assay on SF-295 CNS, in the assay with U251 CNS, with DU-145 prostate, in the assay on OVCAR-3 ovarian and in the assay on MOLT-4 leukemia was over 100 µM throughout. In addition, the TGI in the assay on SNB-19 CNS, in the assay with EKVX NSCLC, in the assay on SN12C renal, with UO-31 renal, with LOX IMVI melanoma and with SK-OV-3 ovarian was over 100 µM throughout. Besides, the TGI in the assay on COLO 205 colon and in the assay with HS 578T breast was over 100 µM throughout.
Regarding `Cc1c(/C=N/NC(=S)Nc2ccc([N+](=O)[O-])cc2)c(=O)n(-c2ccccc2)n1C`, the TGI with RXF 393 renal was 24.8 µM; with SF-295 CNS, 22.7 µM; with U251 CNS it was 30.9 µM; in the assay on MOLT-4 leukemia, over 100 µM; in the assay on SNB-19 CNS, 31.8 µM; in the assay with MDA-MB-435, over 100 µM. In addition, the TGI with EKVX NSCLC is 24.5 µM; in the assay with UO-31 renal it was 49.2 µM; in the assay with LOX IMVI melanoma it was 33.3 µM; with SK-OV-3 ovarian, 26.3 µM; with COLO 205 colon, over 100 µM; in the assay with HS 578T breast it was 42.2 µM.
`CCOC(=O)C(=O)N=Nc1c(O)[nH]c2ccccc12`: the TGI in the assay on RXF 393 renal, in the assay with NCI-H522 lung, in the assay on SF-295 CNS, with U251 CNS, in the assay on DU-145 prostate and in the assay on MOLT-4 leukemia was over 100 µM throughout. Also, the TGI in the assay on SNB-19 CNS, in the assay with MDA-MB-435, with EKVX NSCLC, in the assay with SN12C renal, in the assay with UO-31 renal and in the assay on LOX IMVI melanoma was over 100 µM each time. Besides, the TGI with SK-OV-3 ovarian and with COLO 205 colon was over 100 µM in each case.
In the case of `Cc1ccc(S(=O)(=O)NN=C2C(C)CC(C(C)(C)C)CC2C)cc1` (stereo not drawn), the TGI in the assay with NCI-H522 lung is 50.2 µM; in the assay with SF-295 CNS, 33.1 µM; with U251 CNS, 31.5 µM; in the assay on DU-145 prostate it was 39.1 µM; with OVCAR-3 ovarian it was 31.8 µM; with MOLT-4 leukemia, 43 µM. Moreover, the TGI with SNB-19 CNS amounted to 66 µM; in the assay with MDA-MB-435 it was 34.9 µM; with SN12C renal it was 32.7 µM; in the assay on UO-31 renal, 40.8 µM; in the assay on LOX IMVI melanoma, 33.2 µM; in the assay on SK-OV-3 ovarian, 51.7 µM. The values for the TGI in the assay on COLO 205 colon and with HS 578T breast were 34.5 µM and over 100 µM, respectively.
With `CC1(C)CC(=O)c2c(nc3c(ccc4ccccc43)c2-c2ccc(NC(=O)CCCCCCCCC(=O)Nc3ccc(-c4c5c(nc6c4ccc4ccccc46)CC(C)(C)CC5=O)cc3)cc2)C1`, the TGI in the assay on NCI-H522 lung, in the assay with SF-295 CNS, with U251 CNS, in the assay on DU-145 prostate, with OVCAR-3 ovarian and with MOLT-4 leukemia was over 100 µM each time. The TGI in the assay on SNB-19 CNS, in the assay with MDA-MB-435, with EKVX NSCLC, with SN12C renal, in the assay with UO-31 renal and in the assay on LOX IMVI melanoma was over 100 µM each time. Moreover, the TGI in the assay with SK-OV-3 ovarian, with COLO 205 colon and in the assay with HS 578T breast was over 100 µM each time.
For `CN(NC(=O)c1ccc(Cl)cc1)C1=NCCCCN1`, the TGI in the assay on RXF 393 renal, in the assay with NCI-H522 lung, in the assay on SF-295 CNS, in the assay on U251 CNS, in the assay on OVCAR-3 ovarian and with MOLT-4 leukemia was over 100 µM throughout. Besides, the TGI in the assay on SNB-19 CNS, in the assay on MDA-MB-435, in the assay on EKVX NSCLC, with UO-31 renal, in the assay on LOX IMVI melanoma and in the assay with SK-OV-3 ovarian was over 100 µM each time. Also, the TGI in the assay on COLO 205 colon and in the assay on HS 578T breast was over 100 µM each time.
For the compound `CC(=O)OC12c3ccccc3C(c3ccccc31)C1C(=O)N(Nc3ccccc3)C(=O)C12` (stereo not drawn), the TGI in the assay with RXF 393 renal, in the assay on SF-295 CNS, in the assay on U251 CNS, in the assay on DU-145 prostate, in the assay on OVCAR-3 ovarian and in the assay on MOLT-4 leukemia was over 100 µM in each case. For the same compound, the TGI in the assay with SNB-19 CNS, with EKVX NSCLC, in the assay with SN12C renal, with UO-31 renal, in the assay with LOX IMVI melanoma and in the assay on SK-OV-3 ovarian was over 100 µM in each case. Besides, the TGI in the assay with COLO 205 colon and in the assay with HS 578T breast was over 100 µM each time.
For `COc1ccc2cc(NC(=O)Nn3cnnc3)ccc2c1`, the TGI in the assay on NCI-H522 lung, with SF-295 CNS, with U251 CNS, in the assay with DU-145 prostate, in the assay on OVCAR-3 ovarian and in the assay with MOLT-4 leukemia was over 100 µM in each case. The TGI in the assay with SNB-19 CNS, in the assay with MDA-MB-435, in the assay on EKVX NSCLC, in the assay with UO-31 renal, with LOX IMVI melanoma and in the assay on SK-OV-3 ovarian was over 100 µM throughout. Moreover, the TGI in the assay with COLO 205 colon and in the assay on HS 578T breast was over 100 µM throughout.
